{"source": "PubChem BioAssay (NCI)", "assay_in_all_cases": "growth of human tumour cells (NCI), 48 h", "key": {"NCI-H522 lung": {"tested_on": "NCI-H522 lung"}, "CCRF-CEM leukemia": {"tested_on": "CCRF-CEM leukemia"}, "HL-60(TB) leukemia": {"tested_on": "HL-60(TB) leukemia"}, "M14 melanoma": {"tested_on": "M14 melanoma"}, "786-0 renal": {"tested_on": "786-0 renal"}, "SN12C renal": {"tested_on": "SN12C renal"}, "MOLT-4 leukemia": {"tested_on": "MOLT-4 leukemia"}, "OVCAR-3 ovarian": {"tested_on": "OVCAR-3 ovarian"}, "HT29 colon": {"tested_on": "HT29 colon"}, "SK-MEL-2 melanoma": {"tested_on": "SK-MEL-2 melanoma"}, "K-562 leukemia": {"tested_on": "K-562 leukemia"}, "LOX IMVI melanoma": {"tested_on": "LOX IMVI melanoma"}, "PC-3 prostate": {"tested_on": "PC-3 prostate"}, "CAKI-1 renal": {"tested_on": "CAKI-1 renal"}, "SF-268 CNS": {"tested_on": "SF-268 CNS"}, "HS 578T breast": {"tested_on": "HS 578T breast"}, "TK-10 renal": {"tested_on": "TK-10 renal"}, "UO-31 renal": {"tested_on": "UO-31 renal"}, "IGROV1 ovarian": {"tested_on": "IGROV1 ovarian"}, "HCT-15 colon": {"tested_on": "HCT-15 colon"}}, "note": "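Tested at 5 concentrations; 48 h exposure; 96-well plates; endpoints linearly interpolated, else capped at highest concentration. TGI marks complete inhibition of growth.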", "data": [{"smiles": "CC1=C(C(=O)NNC(=O)C(N)=O)CC(C(=O)NNC(=O)C(N)=O)=C(C)N1", "values": [{"measurement": "TGI", "setting": "NCI-H522 lung", "result": "> 100", "unit": "µM"}, {"measurement": "TGI", "setting": "CCRF-CEM leukemia", "result": "> 100", "unit": "µM"}, {"measurement": "TGI", "setting": "HL-60(TB) leukemia", "result": "> 100", "unit": "µM"}, {"measurement": "TGI", "setting": "M14 melanoma", "result": "> 100", "unit": "µM"}, {"measurement": "TGI", "setting": "786-0 renal", "result": "> 100", "unit": "µM"}, {"measurement": "TGI", "setting": "SN12C renal", "result": "> 100", "unit": "µM"}, {"measurement": "TGI", "setting": "MOLT-4 leukemia", "result": "> 100", "unit": "µM"}, {"measurement": "TGI", "setting": "OVCAR-3 ovarian", "result": "> 100", "unit": "µM"}, {"measurement": "TGI", "setting": "HT29 colon", "result": "> 100", "unit": "µM"}, {"measurement": "TGI", "setting": "SK-MEL-2 melanoma", "result": "> 100", "unit": "µM"}, {"measurement": "TGI", "setting": "K-562 leukemia", "result": "> 100", "unit": "µM"}, {"measurement": "TGI", "setting": "LOX IMVI melanoma", "result": "> 100", "unit": "µM"}, {"measurement": "TGI", "setting": "PC-3 prostate", "result": "> 100", "unit": "µM"}, {"measurement": "TGI", "setting": "CAKI-1 renal", "result": "> 100", "unit": "µM"}, {"measurement": "TGI", "setting": "SF-268 CNS", "result": "> 100", "unit": "µM"}, {"measurement": "TGI", "setting": "HS 578T breast", "result": "> 100", "unit": "µM"}, {"measurement": "TGI", "setting": "TK-10 renal", "result": "> 100", "unit": "µM"}, {"measurement": "TGI", "setting": "UO-31 renal", "result": "> 100", "unit": "µM"}, {"measurement": "TGI", "setting": "IGROV1 ovarian", "result": "> 100", "unit": "µM"}, {"measurement": "TGI", "setting": "HCT-15 colon", "result": "> 100", "unit": "µM"}]}, {"smiles": "CC(=O)c1cccc(Nc2c3ccccc3nc3occc23)c1", "values": [{"measurement": "TGI", "setting": "NCI-H522 lung", "result": 4.62, "unit": "µM"}, {"measurement": "TGI", "setting": "CCRF-CEM leukemia", "result": 18.8, "unit": "µM"}, {"measurement": "TGI", "setting": "HL-60(TB) leukemia", "result": 12.4, "unit": "µM"}, {"measurement": "TGI", "setting": "M14 melanoma", "result": 24.4, "unit": "µM"}, {"measurement": "TGI", "setting": "786-0 renal", "result": 27.6, "unit": "µM"}, {"measurement": "TGI", "setting": "SN12C renal", "result": "> 100", "unit": "µM"}, {"measurement": "TGI", "setting": "MOLT-4 leukemia", "result": 51.6, "unit": "µM"}, {"measurement": "TGI", "setting": "OVCAR-3 ovarian", "result": 5.99, "unit": "µM"}, {"measurement": "TGI", "setting": "HT29 colon", "result": 8.46, "unit": "µM"}, {"measurement": "TGI", "setting": "SK-MEL-2 melanoma", "result": 11.4, "unit": "µM"}, {"measurement": "TGI", "setting": "K-562 leukemia", "result": "> 100", "unit": "µM"}, {"measurement": "TGI", "setting": "LOX IMVI melanoma", "result": "> 100", "unit": "µM"}, {"measurement": "TGI", "setting": "PC-3 prostate", "result": "> 100", "unit": "µM"}, {"measurement": "TGI", "setting": "CAKI-1 renal", "result": 8.82, "unit": "µM"}, {"measurement": "TGI", "setting": "SF-268 CNS", "result": "> 100", "unit": "µM"}, {"measurement": "TGI", "setting": "HS 578T breast", "result": 35.3, "unit": "µM"}, {"measurement": "TGI", "setting": "TK-10 renal", "result": 94.1, "unit": "µM"}, {"measurement": "TGI", "setting": "UO-31 renal", "result": "> 100", "unit": "µM"}, {"measurement": "TGI", "setting": "IGROV1 ovarian", "result": 9.58, "unit": "µM"}, {"measurement": "TGI", "setting": "HCT-15 colon", "result": "> 100", "unit": "µM"}]}, {"smiles": "COCOc1cc(OC)c(Br)cc1C/C(=N/O)C(=O)OC", "values": [{"measurement": "TGI", "setting": "NCI-H522 lung", "result": "> 100", "unit": "µM"}, {"measurement": "TGI", "setting": "CCRF-CEM leukemia", "result": "> 100", "unit": "µM"}, {"measurement": "TGI", "setting": "HL-60(TB) leukemia", "result": "> 100", "unit": "µM"}, {"measurement": "TGI", "setting": "M14 melanoma", "result": "> 100", "unit": "µM"}, {"measurement": "TGI", "setting": "786-0 renal", "result": "> 100", "unit": "µM"}, {"measurement": "TGI", "setting": "SN12C renal", "result": "> 100", "unit": "µM"}, {"measurement": "TGI", "setting": "MOLT-4 leukemia", "result": "> 100", "unit": "µM"}, {"measurement": "TGI", "setting": "OVCAR-3 ovarian", "result": "> 100", "unit": "µM"}, {"measurement": "TGI", "setting": "HT29 colon", "result": "> 100", "unit": "µM"}, {"measurement": "TGI", "setting": "SK-MEL-2 melanoma", "result": "> 100", "unit": "µM"}, {"measurement": "TGI", "setting": "K-562 leukemia", "result": "> 100", "unit": "µM"}, {"measurement": "TGI", "setting": "LOX IMVI melanoma", "result": "> 100", "unit": "µM"}, {"measurement": "TGI", "setting": "PC-3 prostate", "result": "> 100", "unit": "µM"}, {"measurement": "TGI", "setting": "CAKI-1 renal", "result": "> 100", "unit": "µM"}, {"measurement": "TGI", "setting": "SF-268 CNS", "result": "> 100", "unit": "µM"}, {"measurement": "TGI", "setting": "HS 578T breast", "result": 57.3, "unit": "µM"}, {"measurement": "TGI", "setting": "TK-10 renal", "result": "> 100", "unit": "µM"}, {"measurement": "TGI", "setting": "UO-31 renal", "result": "> 100", "unit": "µM"}, {"measurement": "TGI", "setting": "IGROV1 ovarian", "result": "> 100", "unit": "µM"}, {"measurement": "TGI", "setting": "HCT-15 colon", "result": "> 100", "unit": "µM"}]}]}
